Among the data in paper PMC10674866, “Electrosprayed Nanoparticles Containing Mangiferin-Rich Extract from Mango Leaves for Cosmeceutical Application” (Nanomaterials, 2023) are IC50 and inhibition values, retold here.

≈ marks a conversion by molar mass, not a printed value.

What is called IC50 is the point on the concentration scale where inhibition reaches its midpoint. Lower therefore signals inhibition by little substance.

Holding throughout (assay type): biochemical
In one test the target is T1, tyrosinase from mushroom.
T1 construct: gene PPO1
In words: absorbance at […] nm. The following applies: L-tyrosine substrate; 20 mM phosphate pH 6.8; room temperature.

The target in test [1] is T2, collagenase from Histidium histolyticum.
T2 construct: gene colG
Put plainly: fluorescence assay of collagen hydrolysis ([…],4-DHPAA / periodate). The note with it: collagen substrate; borate buffer pH 7.5; 5 mM CaCl2; 37 °C.

The target of test [2] is T3, hyaluronidase from bovine (Bos taurus, UniProt Q2YDK3).
T3 construct: gene SPAM1; commercial native enzyme (Sigma-Aldrich)
T3 sequence (Q2YDK3 36-553): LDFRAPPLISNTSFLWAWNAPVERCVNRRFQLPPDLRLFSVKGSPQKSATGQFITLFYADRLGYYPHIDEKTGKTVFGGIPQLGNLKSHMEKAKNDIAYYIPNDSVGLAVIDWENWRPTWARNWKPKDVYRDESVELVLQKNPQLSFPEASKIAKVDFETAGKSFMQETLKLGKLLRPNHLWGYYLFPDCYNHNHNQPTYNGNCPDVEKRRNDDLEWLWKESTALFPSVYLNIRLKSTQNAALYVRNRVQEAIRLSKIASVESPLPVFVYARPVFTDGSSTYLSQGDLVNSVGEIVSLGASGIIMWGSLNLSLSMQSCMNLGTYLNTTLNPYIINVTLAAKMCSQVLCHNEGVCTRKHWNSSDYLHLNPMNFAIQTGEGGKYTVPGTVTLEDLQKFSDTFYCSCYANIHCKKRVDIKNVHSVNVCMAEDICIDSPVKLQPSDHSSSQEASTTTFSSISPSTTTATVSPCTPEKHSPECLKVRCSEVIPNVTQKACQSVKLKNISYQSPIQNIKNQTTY
Put plainly: turbidity with acidic albumin, absorbance at […] nm. The note with it: read-out: % inhibition at 40.0 μg/mL.

For the molecule `O=C1O[C@H]([C@@H](O)CO)C(O)=C1O` [ascorbic acid], the IC50 against tyrosinase from mushroom stood at 69.8 ± 0.018 µg/mL (≈ 396 µM); in test [1], 107.84 ± 0.001 µg/mL (≈ 612 µM).
As to `O=c1c2cc(O)c(O)cc2oc2cc(O)c([C@@H]3O[C@H](CO)[C@@H](O)[C@H](O)[C@H]3O)c(O)c12` [mangiferin], in test [2], the inhibition at 40 µg/mL amounted to 1.72 ± 1.13%. For the same molecule, in test [1], the IC50 is listed as 30.06 ± 0.001 µg/mL (≈ 71.2 µM).
